Laboratory results from ChEMBL document CHEMBL4376804, “Review of Transient Receptor Potential Canonical (TRPC5) Channel Modulators and Diseases” (J Med Chem, 2019).
pIC50: −log10 of the molar value.

Key:
Format in all cases: cell-based
[1] = molecular target: T1, Short transient receptor potential channel 4 (Mus musculus, UniProt Q9QUQ5); test: Inhibition of mouse TRPC4 beta expressed in HEK293 cells co-expressing mu-opioid receptor assessed as reduction in DAMGO-induced membrane potential by FMP-2 dye based assay
T1 sequence (Q9QUQ5 whole entry): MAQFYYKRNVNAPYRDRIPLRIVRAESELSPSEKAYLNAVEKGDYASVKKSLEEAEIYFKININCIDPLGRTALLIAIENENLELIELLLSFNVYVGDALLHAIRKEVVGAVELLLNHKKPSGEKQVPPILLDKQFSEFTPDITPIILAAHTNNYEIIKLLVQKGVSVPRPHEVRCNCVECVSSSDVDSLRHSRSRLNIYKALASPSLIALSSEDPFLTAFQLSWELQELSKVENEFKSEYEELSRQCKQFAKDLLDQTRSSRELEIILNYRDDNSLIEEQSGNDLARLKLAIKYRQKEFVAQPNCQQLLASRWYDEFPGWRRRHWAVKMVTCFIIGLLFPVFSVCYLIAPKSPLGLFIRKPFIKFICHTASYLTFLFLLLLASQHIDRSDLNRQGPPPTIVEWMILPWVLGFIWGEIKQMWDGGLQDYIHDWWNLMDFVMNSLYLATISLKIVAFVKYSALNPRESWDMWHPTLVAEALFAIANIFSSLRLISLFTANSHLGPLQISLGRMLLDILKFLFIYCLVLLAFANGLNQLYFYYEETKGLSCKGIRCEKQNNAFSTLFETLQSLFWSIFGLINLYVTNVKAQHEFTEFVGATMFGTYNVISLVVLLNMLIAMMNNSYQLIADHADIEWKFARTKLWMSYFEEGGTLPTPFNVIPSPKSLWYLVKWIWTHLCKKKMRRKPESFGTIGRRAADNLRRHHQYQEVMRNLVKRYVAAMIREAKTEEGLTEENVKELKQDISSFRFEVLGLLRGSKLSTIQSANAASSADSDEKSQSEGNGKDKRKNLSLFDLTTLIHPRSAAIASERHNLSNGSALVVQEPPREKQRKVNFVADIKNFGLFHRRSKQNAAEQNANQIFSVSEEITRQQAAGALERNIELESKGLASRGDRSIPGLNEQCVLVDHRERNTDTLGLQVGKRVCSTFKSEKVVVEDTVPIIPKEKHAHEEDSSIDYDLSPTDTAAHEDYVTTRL

[2] = molecular target: T2, Short transient receptor potential channel 6 (Mus musculus, UniProt Q61143); test: Inhibition of mouse TRPC6 expressed in HEK293 cells co-expressing M5 receptor assessed as reduction in carbachol-induced membrane potential by FMP-2 dye based assay
T2 sequence (Q61143 whole entry): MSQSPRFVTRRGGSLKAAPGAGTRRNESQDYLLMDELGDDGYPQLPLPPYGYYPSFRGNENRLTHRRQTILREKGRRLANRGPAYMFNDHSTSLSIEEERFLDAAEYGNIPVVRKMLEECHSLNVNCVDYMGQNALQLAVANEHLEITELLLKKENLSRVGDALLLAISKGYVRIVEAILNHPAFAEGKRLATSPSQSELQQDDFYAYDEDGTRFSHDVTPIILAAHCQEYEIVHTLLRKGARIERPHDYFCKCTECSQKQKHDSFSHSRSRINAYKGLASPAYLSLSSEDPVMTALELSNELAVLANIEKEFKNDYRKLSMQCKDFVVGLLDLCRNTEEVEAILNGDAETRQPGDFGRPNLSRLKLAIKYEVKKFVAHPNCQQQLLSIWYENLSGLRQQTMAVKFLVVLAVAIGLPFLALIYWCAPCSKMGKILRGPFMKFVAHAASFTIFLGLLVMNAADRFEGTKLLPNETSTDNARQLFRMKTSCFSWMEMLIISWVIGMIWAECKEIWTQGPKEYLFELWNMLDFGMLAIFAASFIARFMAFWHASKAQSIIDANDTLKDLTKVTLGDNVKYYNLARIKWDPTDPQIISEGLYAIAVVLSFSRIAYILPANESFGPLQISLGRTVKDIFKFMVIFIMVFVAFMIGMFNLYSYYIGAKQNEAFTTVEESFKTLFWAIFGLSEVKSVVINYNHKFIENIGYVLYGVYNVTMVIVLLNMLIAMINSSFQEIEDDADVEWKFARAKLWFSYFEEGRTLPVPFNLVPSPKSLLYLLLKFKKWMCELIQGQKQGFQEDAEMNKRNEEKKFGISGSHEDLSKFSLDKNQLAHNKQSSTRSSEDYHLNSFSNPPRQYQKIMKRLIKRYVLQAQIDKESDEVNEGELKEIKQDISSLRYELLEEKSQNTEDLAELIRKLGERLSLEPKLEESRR

[3] = molecular target: T3, Short transient receptor potential channel 5 (Mus musculus, UniProt Q9QX29); test: Inhibition of mouse TRPC5 expressed in HEK293 cells co-expressing mu-opioid receptor assessed as reduction in DAMGO-induced membrane potential by FMP-2 dye based assay
T3 sequence (Q9QX29 whole entry): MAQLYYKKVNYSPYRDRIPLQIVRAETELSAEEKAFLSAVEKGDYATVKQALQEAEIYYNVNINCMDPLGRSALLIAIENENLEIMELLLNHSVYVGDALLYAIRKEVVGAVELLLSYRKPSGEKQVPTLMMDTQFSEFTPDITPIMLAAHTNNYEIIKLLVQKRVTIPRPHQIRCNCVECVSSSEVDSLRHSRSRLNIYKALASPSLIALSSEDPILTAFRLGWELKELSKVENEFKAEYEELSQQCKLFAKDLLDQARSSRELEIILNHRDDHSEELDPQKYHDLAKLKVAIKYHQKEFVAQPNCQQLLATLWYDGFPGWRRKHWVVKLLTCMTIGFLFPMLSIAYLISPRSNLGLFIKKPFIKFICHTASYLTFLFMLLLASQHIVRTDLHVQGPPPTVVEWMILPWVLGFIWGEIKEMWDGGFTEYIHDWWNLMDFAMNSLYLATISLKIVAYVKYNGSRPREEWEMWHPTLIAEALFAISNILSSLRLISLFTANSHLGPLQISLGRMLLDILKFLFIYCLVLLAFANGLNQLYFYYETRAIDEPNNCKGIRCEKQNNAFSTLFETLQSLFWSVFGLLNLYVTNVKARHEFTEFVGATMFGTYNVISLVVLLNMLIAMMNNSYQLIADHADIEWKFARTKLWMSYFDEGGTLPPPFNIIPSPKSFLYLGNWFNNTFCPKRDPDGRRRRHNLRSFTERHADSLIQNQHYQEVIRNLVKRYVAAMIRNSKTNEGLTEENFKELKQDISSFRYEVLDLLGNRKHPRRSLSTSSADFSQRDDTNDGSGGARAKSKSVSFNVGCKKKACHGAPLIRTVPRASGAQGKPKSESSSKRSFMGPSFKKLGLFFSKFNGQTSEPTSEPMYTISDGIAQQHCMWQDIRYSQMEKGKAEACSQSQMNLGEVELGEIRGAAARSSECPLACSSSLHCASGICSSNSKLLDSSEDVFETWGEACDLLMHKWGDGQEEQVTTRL

| pIC50 [1] | pIC50 [2] | pIC50 [3] | Structure (SMILES) |
| --- | --- | --- | --- |
| 4.99 | < 4.00 | 4.91 | c1ccc2[nH]c(NC34CC5CC(CC(C5)C3)C4)nc2c1 |
| 5.28 | 4.20 | 5.18 | CC1CCN(c2nc3ccccc3[nH]2)CC1 |
| 4.96 | < 4.00 | 4.95 | c1ccc2[nH]c(N3CCCCC3)nc2c1 |
| 5.39 | 4.24 | 5.51 | CC1CCN(c2nc3cc(Cl)ccc3[nH]2)CC1 |
| 5.37 | < 4.00 | 5.46 | CC1CCCCN1c1nc2ccccc2[nH]1 (stereo not drawn) |
| 5.26 | < 4.00 | 5.10 | c1ccc2[nH]c(N3CCCC3)nc2c1 |
